{"source": "paper PMC7478165", "about": "“Derivatisation of parthenolide to address chemoresistant chronic lymphocytic leukaemia” (MedChemComm, 2019)", "key": {"[1]": {"tested_on": "MEC1 CLL cell line", "assay": "alamarBlue assay, in vitro antileukaemic activity against MEC1 CLL cell line", "type": "cell-based", "details": "for LipE pEC50–clog P: MEC1 cell line pEC50 minus calculated log P", "from_the_text": "Defective p53-signalling increases genomic instability and drives tumour progression. A high frequency of p53 inactivation is found in relapsed, treatment-resistant, high risk CLL.[30] […] Owing to resource availability a subset of up to ten of these compounds was prioritised for further investigation. Compounds 2d, 2e, 2j, 2aa, 5a, 5d, 5e, 5f, 5ab and 6b were selected on the basis of reasons including ease of synthetic access, diversity across the chemical space probed and novelty. Those prepared under conditions (i)Scheme 1 (2d, 5a and 6b) were available on a scale and in a purity to directly permit follow-up studies, whereas compounds prepared under conditions (ii)Scheme 1 were prepared on a small scale so were resynthesised. These seven compounds (2e, 2j, 2aa, 5d, 5e, 5f and 5ab) were isolated on >30 mg scale in high purity and progressed to more following studies.\nFollowing the identification of 5f as the most promising drug-like derivative of PTL from the aforementioned parallel/high-throughput screening, the anti-leukaemic activity of 5f was tested once more and compared directly with that of PTL (1) and DMAPT (2a), which serve as comparators and positive controls.\nAmine 7 was successfully prepared as follows: 4-Piperidinecarboxylic acid was N-Boc protected to deliver 8 in 92% yield.[43] In order to confidently assign the NMR spectra of compound 8 J-MOD, HSQC and ^1H–^1H COSY were helpful, particularly in establishing that a broad resonance in the proton-decoupled ^13C NMR spectrum, centred on 42.8 ppm, corresponds to the ring-carbons bonded to nitrogen. The carboxylic acid of 8 was converted to the corresponding ethyl-3-keto-propanoate 9 in 24% yield. Conversion of 9 to the N-Boc protected congener 10, was achieved by treatment with acetamidine hydrochloride and potassium carbonate, furnishing 10 in 77% yield. Treatment with trifluoroacetic acid delivered desired compound 7 in 99% yield for the Boc-deprotection step (scale 200 mg, 17% over four linear steps). Thus, evidencing accessibility of amine 7 and with it in hand, it was timely to probe any activity arising from the amine alone. MEC1 sensitivity to 1, 5f and 7 was compared in parallel using the alamarBlue® assay (Fig. 6). […] A pre-peer-reviewed preprint of this article was deposited and may be viewed elsewhere.[44]"}, "[2]": {"assay": "Murine intravenous PK study", "type": "in vivo", "details": "IV 1 mg kg^–1; for Vd: read-out: Mouse PK (IV) VSS", "protocol": "In order to determine 5a and 5f are suitable for use as pharmaceutical agents their pharmacokinetic (PK) parameters were next probed. A murine intravenous PK study of compounds 5a and 5f at 1.0 mg kg^–1 was conducted and their concentrations in blood were measured with time (Fig. 4(a)i and (b)i and Table 2)."}, "[3]": {"assay": "Murine oral (PO) PK study", "type": "in vivo", "details": "PO 10 mg kg^–1; for bioavailability: read-out: Mouse PK (PO) F%", "protocol": "The in vivo oral bioavailability of compounds 5a and 5f was compared in a murine PK study at 10 mg kg^–1 (Fig. 4(a)ii and (b)ii and Table 2). In keeping with the intravenous findings, the murine PO half-life of 5f was twice as long as 5a (1.0 versus 0.5 hours, Table 2) and the Cmax attained by 5f was approximately 40% higher than that achieved by 5a (404 versus 283 ng mL^–1). […] Compound 5f was therefore identified as a promising potential new agent with desirable pharmacological properties towards a therapy for drug-resistant CLL."}, "[4]": {"assay": "Stability in aqueous solution, pH 7.4", "type": "physicochemical", "details": "for stability in aqueous solution: result in words; for half-life: pH 7.4, read-out: Stability pH 7.4 T1/2", "protocol": "Compounds 2d, 2e, 2f, 2g, 2j, 2aa, 5a, 5d, 5e, 5f, 5ab and 6b were subjected to in vitro DMPK testing. […] The other three (2d, 2j and 2aa) were not retained for further investigation due to poor stability (T1/2 at pH 7.4: 13, 107 and 76 min, Table 1, entries 1, 3 and 4 respectively). One obvious aspect contributing to observed stability is the propensity for PTL derivatives of this type to undergo a retro-amination (reverse-Michael-type mechanism), indeed this reverse reaction is often claimed as a pro-drug mode of action.[29a],[33] […] It is a reasonable assertion that activity observed for these unstable compounds could well be ascribed to free PTL generated rapidly in the assay."}, "[5]": {"assay": "Microsomal stability assay (mouse)", "details": "for microsomal CLint: mouse, liver microsomes; for Mouse microsomal stability: mouse microsomes"}, "[6]": {"assay": "Caco-2 permeability assay", "type": "in vitro ADME", "details": "human"}, "[7]": {"details": "MEC1 cell line, alamarBlue assay, library screen, read-out: EC50 ave."}, "[8]": {"details": "first of two columns headed A to B"}, "[9]": {"details": "second of two columns headed A to B"}}, "note": "Read-outs that look alike come from different tables or passages of the source.", "data": [{"smiles": "C/C1=C\\CC[C@@]2(C)O[C@@H]2[C@H]2OC(=O)[C@@H](CN3CCC(c4cc(O)nc(C)n4)CC3)[C@@H]2CC1", "note": "[C00012]", "values": [{"measurement": "EC50", "setting": "[1]; [7]", "value": 7.7, "unit": "µM"}, {"measurement": "Mouse PK (IV) Cl", "setting": "[2]", "value": 58, "unit": "mL min^–1 kg^–1"}, {"measurement": "Mouse PK (IV) T1/2", "setting": "[2]", "value": 1.14, "unit": "h"}, {"measurement": "Mouse PK (IV) UC (0-inf)", "setting": "[2]", "value": 289, "unit": "ng h mL^–1"}, {"measurement": "Vd", "setting": "[2]; blood, mouse", "value": 4.62, "unit": "L/kg"}, {"measurement": "Mouse PK (PO) Cmax", "setting": "[3]", "value": 404, "unit": "ng mL^–1"}, {"measurement": "Mouse PK (PO) UC (0-inf)", "setting": "[3]", "value": 1696, "unit": "ng h mL^–1"}, {"measurement": "Tmax", "setting": "[3]; in vivo, mouse", "value": 1, "unit": "h"}, {"measurement": "bioavailability", "setting": "[3]; in vivo, mouse", "value": 58.5, "unit": "%"}]}, {"smiles": "CCn1cc(CN(C[C@@H]2C(=O)O[C@H]3[C@H]2CC/C(C)=C/CC[C@@]2(C)O[C@H]32)C(C)C)cn1", "note": "[Compound 2e]", "values": [{"measurement": "EC50", "setting": "[1]; [7]", "value": "< 15", "unit": "µM"}, {"measurement": "stability in aqueous solution", "setting": "[4]", "value": "greater than two hours"}, {"measurement": "microsomal CLint", "setting": "[5]", "value": "> 100", "unit": "µL/min/mg"}]}, {"smiles": "C/C1=C\\CC[C@@]2(C)O[C@@H]2[C@H]2OC(=O)[C@@H](CN3CCC(OCc4cccnc4)CC3)[C@@H]2CC1", "note": "[C00009]", "values": [{"measurement": "LipE pEC50–clog P", "setting": "[1]", "value": 2.29}, {"measurement": "EC50", "setting": "[1]; [7]", "value": 7.6, "unit": "µM"}, {"measurement": "half-life", "setting": "[4]", "value": "> 2", "unit": "h"}, {"measurement": "efflux ratio", "setting": "[6]; Caco-2, pH 7.4", "value": 0.8}, {"measurement": "Papp A→B", "setting": "[6]; Caco-2, pH 7.4, A to B", "value": 10.9, "unit": "×10⁻⁶ cm/s"}, {"measurement": "Papp B→A", "setting": "[6]; Caco-2, pH 7.4, B to A", "value": 9.1, "unit": "×10⁻⁶ cm/s"}, {"measurement": "Mouse microsomal stability", "setting": "[5]; [8]", "value": 128}, {"measurement": "Mouse microsomal stability", "setting": "[5]; [9]", "value": 11}]}, {"smiles": "C/C1=C\\CC[C@@]2(C)O[C@@H]2[C@H]2OC(=O)[C@@H](CN3CCCC3)[C@@H]2CC1", "note": "[C00011]", "values": [{"measurement": "Mouse PK (IV) UC (0-inf)", "setting": "[2]", "value": 80.5, "unit": "ng h mL^–1"}, {"measurement": "clearance", "setting": "[2]; blood, mouse, read-out: Mouse PK (IV) Cl", "value": 207, "unit": "mL/min/kg"}, {"measurement": "half-life", "setting": "[2]; blood, mouse, read-out: Mouse PK (IV) T1/2 (converted)", "value": 0.66, "unit": "h"}, {"measurement": "Vd", "setting": "[2]; blood, mouse", "value": 11.6, "unit": "L/kg"}, {"measurement": "Mouse PK (PO) UC (0-inf)", "setting": "[3]", "value": 711, "unit": "ng h mL^–1"}, {"measurement": "Cmax", "setting": "[3]; in vivo, mouse", "value": 283, "unit": "ng/mL"}, {"measurement": "Tmax", "setting": "[3]; in vivo, mouse", "value": 0.5, "unit": "h"}, {"measurement": "bioavailability", "setting": "[3]; in vivo, mouse", "value": 95.8, "unit": "%"}]}, {"smiles": "COc1ccc(CN(C)C[C@@H]2C(=O)O[C@H]3[C@H]2CC/C(C)=C/CC[C@@]2(C)O[C@H]32)cc1OC", "note": "[C00003]", "values": [{"measurement": "LipE pEC50–clog P", "setting": "[1]", "value": 1.48}, {"measurement": "EC50", "setting": "[1]; [7]", "value": 5.6, "unit": "µM"}, {"measurement": "Stability pH 7.4 T1/2", "setting": "[4]", "value": 107, "unit": "min"}]}, {"smiles": "CC1=CCCC2(C)OC2C2OC(=O)C(CN3CCCCC3)C2CC1", "note": "(centres unmarked) [Compound 5b]", "values": [{"measurement": "EC50", "setting": "[1]; Homo sapiens, MEC1, read-out: EC50 ave., MEC1 cell line, alamarBlue assay, library screen", "value": "< 15", "unit": "µM"}, {"measurement": "stability in aqueous solution", "setting": "[4]", "value": "greater than two hours"}]}, {"smiles": "C/C1=C\\CC[C@@]2(C)O[C@@H]2[C@H]2OC(=O)[C@@H](CN3CCC(Oc4cccnc4)CC3)[C@@H]2CC1", "note": "[C00006]", "values": [{"measurement": "LipE pEC50–clog P", "setting": "[1]", "value": 2.48}, {"measurement": "EC50", "setting": "[1]; [7]", "value": 5.4, "unit": "µM"}, {"measurement": "half-life", "setting": "[4]", "value": "> 2", "unit": "h"}, {"measurement": "Mouse microsomal stability", "setting": "[5]; [8]", "value": 251}, {"measurement": "Mouse microsomal stability", "setting": "[5]; [9]", "value": 6}]}, {"smiles": "C/C1=C\\CC[C@@]2(C)O[C@@H]2[C@H]2OC(=O)[C@@H](CN3CCC(Oc4cccnc4)CC3)[C@@H]2CC1", "note": "[Compound 5d]", "values": [{"measurement": "EC50", "setting": "[1]; [7]", "value": "< 15", "unit": "µM"}, {"measurement": "stability in aqueous solution", "setting": "[4]", "value": "greater than two hours"}, {"measurement": "microsomal CLint", "setting": "[5]", "value": "> 100", "unit": "µL/min/mg"}]}, {"smiles": "C/C1=C\\CC[C@@]2(C)O[C@@H]2[C@H]2OC(=O)[C@@H](CN(C)CCc3ccccc3)[C@@H]2CC1", "note": "[C00004]", "values": [{"measurement": "LipE pEC50–clog P", "setting": "[1]", "value": 2.52}, {"measurement": "EC50", "setting": "[1]; [7]", "value": 5.9, "unit": "µM"}, {"measurement": "Stability pH 7.4 T1/2", "setting": "[4]", "value": 76, "unit": "min"}]}]}
